Results taken from the supplement of paper PMC10307832.

How the values were obtained:
Assay in all cases: relative viability (nuclei count vs DMSO), 5 days (fraction); higher = more cells survive
Shikonin + Palbociclib = compound: CC(C)=CC[C@@H](O)C1=CC(=O)c2c(O)ccc(O)c2C1=O [Shikonin] + CC(=O)c1c(C)c2cnc(Nc3ccc(N4CCNCC4)cn3)nc2n(C2CCCC2)c1=O [Palbociclib] (partner 0.5 µM)
In short: (§1)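 Lung cancer cell lines were pin-tool dosed in 1536-well plates on the day after seeding, with either a lone drug or a fixed anchor-drug dose plus five library-drug doses (not always all listed) in √10 steps. Nuclei were counted on 4× images after 5 days. Relative viability is the ratio of treated-well to vehicle-well nuclei counts, with each value a median of duplicate plates.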

Shikonin + Alpelisib = compound: CC(C)=CC[C@@H](O)C1=CC(=O)c2c(O)ccc(O)c2C1=O [Shikonin] + Cc1nc(NC(=O)N2CCC[C@H]2C(N)=O)sc1-c1ccnc(C(C)(C)C(F)(F)F)c1 [Alpelisib] (partner 2 µM)
In short: as §1

[1] = compound: CC(C)N(CCCNC(=O)Nc1ccc(C(C)(C)C)cc1)C[C@H]1O[C@@H](n2ccc3c(N)ncnc32)[C@H](O)[C@@H]1O + CS(=O)(=O)N1CCN(Cc2cc3nc(-c4cccc5[nH]ncc45)nc(N4CCOCC4)c3s2)CC1 [Pictilisib] (partner 1 µM)
In short: as §1

[2] = compound: CC(C)N(CCCNC(=O)Nc1ccc(C(C)(C)C)cc1)C[C@H]1O[C@@H](n2ccc3c(N)ncnc32)[C@H](O)[C@@H]1O + Nc1nc2[nH]cc(CCc3ccc(C(=O)N[C@@H](CCC(=O)O)C(=O)O)cc3)c2c(=O)[nH]1 [Pemetrexed] (partner 0.2 µM)
In short: as §1

Cell Line	relative viability (Shikonin + Palbociclib; first compound 0.01 µM)	relative viability (Shikonin + Palbociclib; first compound 0.1 µM)	relative viability (Shikonin + Palbociclib; first compound 0.3162 µM)	relative viability (Shikonin + Palbociclib; first compound 1 µM)	relative viability (Shikonin + Alpelisib; first compound 0.1 µM)	relative viability (Shikonin + Alpelisib; first compound 0.3162 µM)	relative viability (Shikonin + Alpelisib; first compound 1 µM)	relative viability ([1]; first compound 0.08 µM)	relative viability ([1]; first compound 0.253 µM)	relative viability ([1]; first compound 0.8 µM)	relative viability ([1]; first compound 2.53 µM)	relative viability ([1]; first compound 8 µM)	relative viability ([2]; first compound 0.08 µM)	relative viability ([2]; first compound 0.8 µM)	relative viability ([2]; first compound 2.53 µM)	relative viability ([2]; first compound 8 µM)	relative viability (Shikonin + Alpelisib; first compound 0.01 µM)	relative viability ([2]; first compound 0.253 µM)
NCI-H1993	0.687	0.672	0.722	0.455	0.662	0.661	0.699	0.822	0.716	0.868	0.781	0.773	0.564	0.533	0.638	0.543		
NCI-H2405	0.527	0.569	0.558	0.509	0.798	0.864	0.761	0.506		0.358	0.46	0.429	1.09	0.999	1.01	0.968	0.742	1.08
NCI-H2023	0.437	0.363	0.411	0.401	0.709	0.589	0.598	0.265	0.215	0.219	0.333	0.217	0.246	0.232	0.215	0.213	0.579	0.246
HCC-15	0.781	0.676	0.817	0.724	0.949	1.04	0.912	0.697	0.695	0.643	0.732	0.701	0.221	0.229	0.213	0.219	0.881	0.225
HCC-44	0.979	0.991	0.984	1	0.849	0.933	0.852	0.542	0.644	0.488	0.734	0.578	0.662	0.539	0.688	0.586	0.972	0.654
COR-L23	0.26	0.299	0.306	0.29	0.913	0.86	0.719	0.678	0.606	0.662	0.778	0.735	0.188	0.202	0.2	0.21	0.845	0.203
HCC-78	0.459	0.481	0.461	0.413	0.347	0.352	0.349	0.156	0.196	0.263	0.192	0.212	0.869	0.928	0.844	0.846	0.311	0.848
PC-14	0.397	0.535	0.524	0.509	1.01	1.07	1.07	0.657	0.528	0.795	0.882	0.57	0.149	0.138	0.141	0.163	0.933	0.171
NCI-H2126	0.362	0.408	0.379	0.349	0.843	0.786	0.763	0.499	0.476	0.415	0.529	0.48	0.657	0.696	0.665	0.691	0.764	0.619
BEN	0.47	0.465	0.437	0.54	1.1	1.12	1.24	0.606	0.497	0.586	0.588	0.586	0.705	0.762	0.694	0.72	1.09	0.646
LCLC-103H	0.462	0.498	0.521	0.429	0.994	0.896	0.978	0.639	0.522	0.703	0.551	0.716	0.417	0.452	0.413	0.51	0.984	0.454
EKVX	0.404	0.389	0.413	0.366	0.973	1.07	0.846	0.454	0.407	0.446	0.468	0.423	0.44	0.413	0.464	0.404	0.863	0.325
LXF-289	0.594	0.707	0.618	0.622	0.963	1.02	1.03	0.775	0.752	0.788	0.852	0.738	0.876	0.96	1.02	0.833	1.12	1
NCI-H2087	0.235	0.234	0.219	0.256	0.967	1.12	1.04	0.898	0.778	0.745	0.963	0.653	0.718	0.714	0.735	0.662	1.15	0.653
NCI-H1793	0.283	0.321	0.306	0.345	0.779	0.754	0.722	0.296		0.369	0.281	0.35	0.77	0.831	0.801	0.767	0.863	
LC-2-ad	0.533	0.483	0.441	0.511	0.944	0.925	0.912	0.612	0.518	0.413	0.511	0.427	0.282	0.263	0.282	0.276	0.921	0.271
COR-L 105	0.447	0.388	0.483	0.402	1.18	1.07	0.728	0.413	0.301	0.408	0.369	0.404	1.09	1.18	1.11	0.956	1.09	1.01
NCI-H1355	0.421	0.419	0.383	0.398	0.823	0.943	0.927	0.376	0.337		0.518	0.404	0.964	0.761	1.03	0.976	0.819	1.05

Cell Line	relative viability (Shikonin + Palbociclib; first compound 0.01 µM)	relative viability (Shikonin + Palbociclib; first compound 0.1 µM)	relative viability (Shikonin + Palbociclib; first compound 0.3162 µM)	relative viability (Shikonin + Palbociclib; first compound 1 µM)	relative viability (Shikonin + Alpelisib; first compound 0.1 µM)	relative viability (Shikonin + Alpelisib; first compound 0.3162 µM)	relative viability (Shikonin + Alpelisib; first compound 1 µM)	relative viability ([1]; first compound 0.08 µM)	relative viability ([1]; first compound 0.253 µM)	relative viability ([1]; first compound 0.8 µM)	relative viability ([1]; first compound 2.53 µM)	relative viability ([1]; first compound 8 µM)	relative viability ([2]; first compound 0.08 µM)	relative viability ([2]; first compound 0.8 µM)	relative viability ([2]; first compound 2.53 µM)	relative viability ([2]; first compound 8 µM)	relative viability (Shikonin + Alpelisib; first compound 0.01 µM)	relative viability ([2]; first compound 0.253 µM)
H3255	0.316	0.333	0.337	0.303	0.721	0.629	0.689	0.463	0.414	0.442	0.557	0.461	0.569	0.61	0.562	0.548	0.637	0.538
NCI-H2009	0.248	0.203	0.213	0.145	1.24	1.22	0.802	0.817	0.663	0.826	0.976	0.854	0.994	0.97	0.975	0.953	1.31	1.05
NCI-H1734	0.319	0.38	0.323	0.308	0.722	0.788	0.663	0.405	0.531	0.435	0.496	0.413	0.397	0.431	0.417	0.412	0.7	0.417
HOP-62	0.471	0.581	0.559	0.447	1.37	1.2	0.707	0.723	0.413	0.655	0.776	0.342	0.323	0.39	0.31	0.356	1.11	0.433
LOU-NH91	0.546	0.526	0.549	0.5	0.73	0.839	0.727	0.537	0.527		0.556	0.545	0.359		0.439	0.427	0.703	0.373
NCI-H23	0.597	0.543	0.623	0.573	0.65	0.804	0.659	0.455		0.478	0.568	0.454	0.732	0.693	0.709	0.627	0.76	
RERF-LC-KJ	1.09	1.13	1.1	1.08	0.732	0.798	0.787	0.597	0.511	0.525	0.493	0.501	0.502	0.517	0.48	0.466	0.78	0.478
NCI-H1437	0.328	0.309	0.268	0.303	1.14	0.987	1.1	0.362	0.358	0.526	0.428	0.441	0.31	0.325	0.296	0.283	0.987	0.307
NCI-H1666	0.648	0.664	0.617	0.599	0.964	1.07	0.856	0.354	0.405	0.39	0.405	0.355	0.895	0.919	0.796	0.819	0.915	0.909
NCI-H1651	0.553	0.522	0.544	0.523	0.98	1	1.07	0.601	0.567	0.498	0.565	0.6	0.654	0.57	0.599	0.601	0.921	0.527
NCI-H1755	0.463	0.443	0.432	0.482	0.946	1.07	0.97	0.469	0.478	0.357	0.452	0.394	0.391	0.387	0.489	0.348	1.02	0.447
NCI-H838	0.231	0.246	0.197	0.243	1.18	1.04	1.21	0.328	0.372	0.425	0.473	0.494	0.259	0.283	0.245	0.235	1.02	0.223
HARA	0.262	0.285	0.248	0.248	0.871	0.923	0.917	0.506	0.479	0.344	0.311	0.31	0.229	0.236	0.233	0.231	0.871	0.293
NCI-H650	0.325	0.314	0.334	0.34		1.13	1.08	0.807	0.907	0.887	0.867	0.824	0.882	0.908	0.742	1.01	1.3	0.884
NCI-H2347	0.432	0.424	0.414	0.397	0.99	0.962	1.03	0.45	0.546	0.661	0.582	0.842	0.444	0.439	0.441	0.409	0.992	0.411
LCLC-97TM1	0.293	0.279	0.279	0.23	0.238	0.25	0.292	0.184		0.147	0.202	0.178	0.179	0.18	0.163	0.183	0.246	0.175
EPLC-272H	0.373	0.321	0.336	0.282	1.06	0.946	0.962	0.286	0.253	0.314	0.284	0.322	0.404	0.298	0.341	0.396	0.964	0.303
NCI-H1915	0.535	0.521	0.525	0.645	1.12	1.13	1.04	0.939	0.879	0.868	0.912	0.808	0.444	0.449	0.467	0.497	1.09	0.473
